The term Ki denotes the dissociation constant of the complex between target and ligand, obtained from inhibition or displacement. Low values mean tighter binding, high ones weaker binding.

Experimental findings from patent publication US10273236B2, “Macrocyclic factor XIa inhibitors bearing heterocyclic groups” (Bristol-Myers Squibb Company, priority 2014, dated 2019) are described below.

Where a name gives a salt, the structure may show the parent alone.

Experiment [1] addresses T1, purified human plasma kallikrein (Homo sapiens, UniProt P03952).
T1 construct: Plasma prekallikrein is a zymogen of a trypsin-like serine protease; purchased Enzyme Research Laboratories
In words: Plasma kallikrein inhibition assay, chromogenic substrate S-2302 (Ki). It is filed as biochemical. As to the method:
(§1) The effectiveness of compounds of the present invention as inhibitors of the coagulation Factors XIa, VIIa, IXa, Xa, XIIa, plasma kallikrein or thrombin, can be determined using a relevant purified serine protease, respectively, and an appropriate synthetic substrate. The rate of hydrolysis of the chromogenic or fluorogenic substrate by the relevant serine protease was measured both in the absence and presence of compounds of the present invention. […] A decrease in the rate of absorbance or fluorescence change in the presence of inhibitor is indicative of enzyme inhibition. Such methods are known to one skilled in the art. The results of this assay are expressed as the inhibitory constant, Ki.
Plasma kallikrein determinations were made in 0.1 M sodium phosphate buffer at a pH of 7.5 containing 0.1-0.2 M sodium chloride and 0.5% PEG 8000. Determinations were made using purified human plasma kallikrein (Enzyme Research Laboratories) at a final assay concentration of 200 pM and the synthetic substrate S-2302 (H-(D)-Pro-Phe-Arg-pNA; Chromogenix) at a concentration of 0.00008-0.0004 M.
(§2) Values of Ki were determined by allowing the protease to react with the substrate in the presence of the inhibitor.
(§3) Reactions were allowed to go for periods of 20-180 minutes (depending on the protease) and the velocities (rate of absorbance or fluorescence change versus time) were measured.
(§4) The following relationships were used to calculate Ki values: (Vmax*S)/(Km+S) (vo−vs)/vs=I/(Ki(1+S/Km)) for a competitive inhibitor with one binding site; or vs/vo=A+((B−A)/1+((IC50/(I)^n))); and Ki=IC50/(1+S/Km) for a competitive inhibitor where: […]

Experiment [2] deals with T2, purified human Factor XIa (Homo sapiens, UniProt P03951).
T2 construct: purchased Haematologic Technologies
The experiment is described as follows: Factor XIa inhibition assay, chromogenic substrate S-2366 (Ki). It is filed as biochemical. How it is done: as §1
Factor XIa determinations were made in 50 mM HEPES buffer at pH 7.4 containing 145 mM NaCl, 5 mM KCl, and 0.1% PEG 8000 (polyethylene glycol; JT Baker or Fisher Scientific). Determinations were made using purified human Factor XIa at a final concentration of 25-200 pM (Haematologic Technologies) and the synthetic substrate S-2366 (pyroGlu-Pro-Arg-pNA; Chromogenix or AnaSpec) at a concentration of 0.0002-0.001 M.
as §2, §3, §4

T2 sequence (P03951 388-625 limits assumed): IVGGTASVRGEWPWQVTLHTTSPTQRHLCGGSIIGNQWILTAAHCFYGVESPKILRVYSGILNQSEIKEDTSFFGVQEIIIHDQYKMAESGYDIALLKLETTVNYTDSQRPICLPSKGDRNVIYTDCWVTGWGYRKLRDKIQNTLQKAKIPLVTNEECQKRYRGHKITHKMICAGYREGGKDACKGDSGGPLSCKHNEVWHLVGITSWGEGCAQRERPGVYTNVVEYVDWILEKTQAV
T2 sequence (P03951 19-387 partner limits assumed): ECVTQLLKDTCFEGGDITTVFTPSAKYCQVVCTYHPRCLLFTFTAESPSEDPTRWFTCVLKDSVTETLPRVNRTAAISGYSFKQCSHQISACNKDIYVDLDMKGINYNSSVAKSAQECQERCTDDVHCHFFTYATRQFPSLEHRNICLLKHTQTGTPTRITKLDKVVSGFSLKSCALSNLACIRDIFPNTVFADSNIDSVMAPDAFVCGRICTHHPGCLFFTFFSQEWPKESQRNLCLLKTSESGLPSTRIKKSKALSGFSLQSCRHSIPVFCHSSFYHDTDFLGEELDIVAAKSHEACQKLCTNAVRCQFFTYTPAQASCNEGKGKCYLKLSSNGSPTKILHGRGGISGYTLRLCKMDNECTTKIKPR
T1 sequence (P03952 391-638 limits assumed): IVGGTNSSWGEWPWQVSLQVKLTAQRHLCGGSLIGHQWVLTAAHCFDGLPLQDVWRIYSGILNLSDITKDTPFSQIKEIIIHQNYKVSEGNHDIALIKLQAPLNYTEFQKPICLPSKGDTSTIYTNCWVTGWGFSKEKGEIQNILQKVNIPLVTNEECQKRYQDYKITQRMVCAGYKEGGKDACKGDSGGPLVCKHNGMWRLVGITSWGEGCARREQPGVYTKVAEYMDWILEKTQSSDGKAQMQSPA
T1 sequence (P03952 20-390 partner limits assumed): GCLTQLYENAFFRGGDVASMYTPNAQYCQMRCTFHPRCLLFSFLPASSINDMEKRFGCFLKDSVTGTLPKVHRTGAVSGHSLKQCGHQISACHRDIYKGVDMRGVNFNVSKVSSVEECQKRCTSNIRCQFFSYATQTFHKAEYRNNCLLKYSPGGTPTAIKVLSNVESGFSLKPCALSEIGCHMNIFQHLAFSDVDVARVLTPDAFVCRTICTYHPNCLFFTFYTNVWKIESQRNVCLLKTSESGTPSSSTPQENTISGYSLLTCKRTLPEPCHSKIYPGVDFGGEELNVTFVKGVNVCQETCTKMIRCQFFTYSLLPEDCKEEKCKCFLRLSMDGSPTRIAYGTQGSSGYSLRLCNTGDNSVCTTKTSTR

Regarding `[2H]C([2H])([2H])n1ncc2c1-c1ccnc(c1)[C@@H](N1CCC(c3cc(Cl)ccc3-n3cc(C(F)(F)F)nn3)=CC1=O)CCC[C@@H](C)C(=O)N2` [Example 42, (9R,13S)-13-(4-{5-chloro-2-[4-(trifluoromethyl)-1H-1,2,3-triazol-1-yl]phenyl}-6-oxo-1,2,3,6-tetrahydropyridin-1-yl)-3-(^2H3)methyl-9-methyl-3,4,7,15-tetraazatricyclo[12.3.1.0^2,6]octadeca-1(18),2(6),4,14,16-pentaen-8-one], the results for the Ki in experiment [1] and in experiment [2] were 7 nM and 0.1 nM, respectively.

On to `C[C@@H]1CCC[C@H](N2CCC(c3cc(Cl)ccc3-n3cc(C(F)(F)F)nn3)=CC2=O)c2cc(ccn2)-c2c(cnn2C)NC1=O` [Example 40, (9R,13S)-13-(4-{5-chloro-2-[4-(trifluoromethyl)-1H-1,2,3-triazol-1-yl]phenyl}-6-oxo-1,2,3,6-tetrahydropyridin-1-yl)-3,9-dimethyl-3,4,7,15-tetraazatricyclo[12.3.1.0^2,6]octadeca-1(18),2(6),4,14,16-pentaen-8-one], for which the Ki in experiment [1] was found to be 6 nM; in experiment [2], 0.1 nM. The corresponding values for `CCn1ncc2c1-c1ccnc(c1)[C@@H](N1CCC(c3c(F)ccc(Cl)c3F)=CC1=O)CCC[C@@H](C)C(=O)N2` [Example 10, (9R,13S)-13-[4-(3-chloro-2,6-difluorophenyl)-6-oxo-1,2,3,6-tetrahydropyridin-1-yl]-3-ethyl-9-methyl-3,4,7,15-tetraazatricyclo[12.3.1.0^2,6]octadeca-1(18),2(6),4,14,16-pentaen-8-one] are 50 nM and 14 nM. As for `C[C@@H]1CCC[C@H](N2CCC(c3cc(Cl)ccc3C#N)=CC2=O)c2cc(ccn2)-c2c(cnn2C)NC1=O` [Example 57, 4-chloro-2-{1-[(9R,13S)-3,9-dimethyl-8-oxo-3,4,7,15-tetraazatricyclo[12.3.1.0^2,6]octadeca-1(18),2(6),4,14,16-pentaen-13-yl]-6-oxo-1,2,3,6-tetrahydropyridin-4-yl}benzonitrile], the Ki in experiment [1] stood at 14 nM; in experiment [2] it was 4 nM. In the case of `C[C@@H]1CCC[C@H](N2CCC(c3c(C(F)(F)F)ccc(Cl)c3F)=CC2=O)c2cc(ccn2)-c2c(cnn2C2CC2)NC1=O` [Example 60, (9R,13S)-13-{4-[3-chloro-2-fluoro-6-(trifluoromethyl)phenyl]-6-oxo-1,2,3,6-tetrahydropyridin-1-yl}-3-cyclopropyl-9-methyl-3,4,7,15-tetraazatricyclo[12.3.1.0^2,6]octadeca-1(18),2(6),4,14,16-pentaen-8-one], the Ki in experiment [1] is 22 nM; in experiment [2] it was 7.2 nM. For `C[C@@H]1CCC[C@H](N2CCC(c3cc(Cl)ccc3Br)=CC2=O)c2cc(ccn2)-c2c(cnn2C)NC1=O` [Example 37, (9R,13S)-13-[4-(2-bromo-5-chlorophenyl)-6-oxo-1,2,3,6-tetrahydropyridin-1-yl]-3,9-dimethyl-3,4,7,15-tetraazatricyclo[12.3.1.0^2,6]octadeca-1(18),2(6),4,14,16-pentaen-8-one], the Ki in experiment [1] was 16 nM; in experiment [2] it was 4.7 nM.

Turning to `C[C@@H]1CCC[C@H](N2CCC(c3cc(Cl)ccc3C#N)=CC2=O)c2cc(ccn2)-c2c(cnn2C(F)F)NC1=O` [Example 19, 4-chloro-2-{1-[(9R,13S)-3-(difluoromethyl)-9-methyl-8-oxo-3,4,7,15-tetraazatricyclo[12.3.1.0^2,6]octadeca-1(18),2(6),4,14,16-pentaen-13-yl]-6-oxo-1,2,3,6-tetrahydropyridin-4-yl}benzonitrile], the Ki in experiment [1] is 10 nM; in experiment [2] it was 1.4 nM. Take `C[C@@H]1CCC[C@H](n2ccc(-c3cc(Cl)ccc3C#N)cc2=O)c2cc(ccn2)-c2c(cnn2C(F)F)NC1=O` [Example 4, 4-chloro-2-{1-[(9R,13S)-3-(difluoromethyl)-9-methyl-8-oxo-3,4,7,15-tetraazatricyclo[12.3.1.0^2,6]octadeca-1(18),2(6),4,14,16-pentaen-13-yl]-2-oxo-1,2-dihydropyridin-4-yl}benzonitrile]: the Ki in experiment [1] amounted to 19 nM; in experiment [2] it was 3.2 nM. As for `C[C@@H]1CCC[C@H](N2CCC(c3cc(Cl)ccc3-n3ccnn3)=CC2=O)c2cc(ccn2)-c2c(cnn2C(F)F)NC1=O` [Example 53, (9R)-13-{4-[5-chloro-2-(1H-1,2,3-triazol-1-yl)phenyl]-6-oxo-1,2,3,6-tetrahydropyridin-1-yl}-3-(difluoromethyl)-9-methyl-3,4,7,15-tetraazatricyclo[12.3.1.0^2,6]octadeca-1(18),2(6),4,14,16-pentaen-8-one], the Ki in experiment [1] amounted to 37 nM; in experiment [2] it was 0.87 nM. On to `[2H]C([2H])([2H])n1ncc2c1-c1ccnc(c1)[C@@H](N1CCC(c3c(OC(F)F)ccc(Cl)c3F)=CC1=O)CCC[C@@H](C)C(=O)N2` [Example 30, (9R,13S)-13-{4-[3-chloro-6-(difluoromethoxy)-2-fluorophenyl]-6-oxo-1,2,3,6-tetrahydropyridin-1-yl}-3-(^2H3)methyl-9-methyl-3,4,7,15-tetraazatricyclo[12.3.1.0^2,6]octadeca-1(18),2(6),4,14,16-pentaen-8-one], for which the Ki stood at 7 nM in experiment [1] and 1 nM in experiment [2]. On to `C[C@@H]1CCC[C@H](N2CCC(c3cc(Cl)ccc3-n3cc(Cl)nn3)=CC2=O)c2cc(ccn2)-c2c(cnn2C(F)F)NC1=O` [Example 55, (9R,13S)-13-{4-[5-chloro-2-(4-chloro-1H-1,2,3-triazol-1-yl)phenyl]-6-oxo-1,2,3,6-tetrahydropyridin-1-yl}-3-(difluoromethyl)-9-methyl-3,4,7,15-tetraazatricyclo[12.3.1.0^2,6]octadeca-1(18),2(6),4,14,16-pentaen-8-one], for which the Ki in experiment [1] amounted to 6 nM; in experiment [2] it was 0.1 nM. In the case of `C[C@@H]1CCC[C@H](N2CCC(c3c(Cl)ccc(Cl)c3F)=CC2=O)c2cc(ccn2)-c2c(cnn2C)NC1=O` [Example 24, (9R,13S)-13-[4-(3,6-dichloro-2-fluorophenyl)-6-oxo-1,2,3,6-tetrahydropyridin-1-yl]-3,9-dimethyl-3,4,7,15-tetraazatricyclo[12.3.1.0^2,6]octadeca-1(18),2(6),4,14,16-pentaen-8-one], the Ki in experiment [1] came out at 6 nM; in experiment [2], 2.7 nM.

Turning to `C[C@@H]1CCC[C@H](n2ncc(-c3cc(Cl)ccc3-n3cc(C(F)(F)F)nn3)cc2=O)c2cc(ccn2)-c2c(cnn2C)NC1=O` [Example 61, (9R,13S)-13-(4-{5-chloro-2-[4-(trifluoromethyl)-1H-1,2,3-triazol-1-yl]phenyl}-6-oxo-1,6-dihydropyridazin-1-yl)-3,9-dimethyl-3,4,7,15-tetraazatricyclo[12.3.1.02,6]octadeca-1(18),2(6),4,14,16-pentaen-8-one trifluoroacetate], the Ki in experiment [1] was found to be 66 nM; in experiment [2], 0.51 nM. The corresponding values for `CCn1ncc2c1-c1ccnc(c1)[C@@H](N1CCC(c3c(F)ccc(Cl)c3F)=CC1=O)CCC[C@@H](C)C(=O)N2` [Example 45, (9R,13S)-13-[4-(3-chloro-2,6-difluorophenyl)-6-oxo-1,2,3,6-tetrahydropyridin-1-yl]-3-ethyl-9-methyl-3,4,7,15-tetraazatricyclo[12.3.1.0^2,6]octadeca-1(18),2(6),4,14,16-pentaen-8-one] are 54 nM and 13 nM. With `C[C@@H]1CCC[C@H](N2CCC(c3cc(Cl)ccc3-n3cc(Cl)nn3)=CC2=O)c2cc(ccn2)-c2c(cnn2CC(=O)O)NC1=O` [Example 16, 2-[(9R,13S)-13-{4-[5-chloro-2-(4-chloro-1H-1,2,3-triazol-1-yl)phenyl]-6-oxo-1,2,3,6-tetrahydropyridin-1-yl}-9-methyl-8-oxo-3,4,7,15-tetraazatricyclo [12.3.1.0^2,6]octadeca-1(18),2(6),4,14,16-pentaen-3-yl]acetic acid], the Ki came to 17 nM in experiment [1] and 0.19 nM in experiment [2].

In experiment [1], `C[C@@H]1CCC[C@H](N2CCC(c3cc(Cl)ccc3-n3ccnn3)=CC2=O)c2cc(ccn2)-c2c(cnn2CC(F)F)NC1=O` (stereo in doubt) [Example 8, 13-{4-[5-chloro-2-(1H-1,2,3-triazol-1-yl)phenyl]-6-oxo-1,2,3,6-tetrahydropyridin-1-yl}-3-(2,2-difluoroethyl)-9-methyl-3,4,7,15-tetraazatricyclo [12.3.1.0^2,6]octadeca-1(18),2(6),4,14,16-pentaen-8-one] gave a Ki of 90 nM. As to `CCn1ncc2c1-c1ccnc(c1)[C@@H](N1CCC(c3cc(Cl)ccc3-n3ccnn3)=CC1=O)CCC[C@@H](C)C(=O)N2` (stereo in doubt) [Example 7, 13-{4-[5-chloro-2-(1H-1,2,3-triazol-1-yl)phenyl]-6-oxo-1,2,3,6-tetrahydropyridin-1-yl}-3-ethyl-9-methyl-3,4,7,15-tetraazatricyclo[12.3.1.0^2,6]octadeca-1(18),2(6),4,14,16-pentaen-8-one], in experiment [1], the Ki was 41 nM.
